Assay results reported in patent publication US20100069339A1, “NOVEL METHOD OF TREATMENT OF MALE SUB-FERTILITY” (BIOXELL S.P.A., priority 2006, published 2010).
Entries after “also recorded” stand apart in the source; their conditions may differ.

Experiments:
IL-8 [1] = assay: Sandwich ELISA re-evaluation of seminal plasma IL-8 in trial patients; assay type: in vivo, human; conditions: 29 Compound A-treated vs 27 Placebo-treated patients, p=0.002
Excerpt: (§1) A sandwich ELISA system was used to re-evaluate seminal plasma IL-8 level in 27 Placebo-treated and 29 Compound A—treated patients from the trial described in Biological Example 5 and to extend the analysis to other inflammatory mediators. Note that TIMP-1 is an inhibitor of an inflammatory marker.

[2] = tested on: tissue inhibitor of metalloproteinase TIM-1; assay: Sandwich ELISA of seminal plasma TIM-1 in trial patients; assay type: in vivo, human; conditions: CP/CPPS patients, treatment vs placebo
Excerpt: as §1

human BPH cells = assay: Inhibition of IL-8 production in human BPH cells by vitamin D compounds; assay type: cell-based; conditions: BPH cells stimulated with IL-17 10 ng/ml and interferon gamma 10 ng/ml; compounds at 1, 10 and 100 nM, 72 hours; ELISA
Procedure: Approximately 2000 human BPH cells were placed in wells of a standard 96 well plate and stimulated for 72 hours with IL-17 at 10 ng/ml and interferon gamma at 10 ng/ml and incubated with vitamin D compounds individually at concentrations of 1, 10 and 100 nM for 72 hours IL-8 production by the cells was measured by conventional two-site ELISA using human IL-8 ELISA set (BD Biosciences, San Diego, Calif.) according to the manufacturer's instructions.

IL-8 [3] = assay: Seminal IL-8 in CP/CPPS patients, randomized double-blind placebo controlled study; assay type: in vivo, human
Excerpt: We conducted a randomized, double-blind placebo controlled study in 121 patients with CP/CPPS. The primary objective of the study was to evaluate the effect of Compound A(150 mcg/die) after three months of treatment on the NIH score, a score encompassing pain, quality of life and lower urinary tract symptoms. As a secondary endpoint, we measured IL8 in the semen at baseline and at the end of the treatment.

[4] = tested on: soluble pattern recognition receptor PTX3; assay: Sandwich ELISA of seminal plasma PTX3 in trial patients; assay type: in vivo, human; conditions: CP/CPPS patients, treatment vs placebo
Excerpt: as §1

CCL2/MCP-1 = assay: Sandwich ELISA of seminal plasma CCL2/MCP-1 in trial patients; assay type: in vivo, human; conditions: CP/CPPS patients, treatment vs placebo
Excerpt: as §1

[5] = tested on: matrix metalloproteinase MMP2; assay: Sandwich ELISA of seminal plasma MMP2 in trial patients; assay type: in vivo, human; conditions: CP/CPPS patients, treatment vs placebo
Excerpt: as §1

BPH cells = conditions: cited from earlier work

With `C=C1/C(=C\C=C2/CCC[C@]3(C)C([C@@H](C)C/C=C/C(O)(CC)CC)=CC[C@@H]23)C[C@@H](O)C[C@@H]1F` [Compound A, 1-alpha-fluoro-25-hydroxy-16,23E-diene-26,27-bishomo-20-epi-cholecalciferol] the “seminal plasma IL-8 levels compared to placebo” value (IL-8 [1]) was “Significantly reduced”, the “TIM-1 level in seminal plasma” value [2] was “enhanced” and the “IL-8 production (IL-8 concentration)” value (human BPH cells) was “can lower IL-8 levels in vitro”. For the same compound, the “IL-8 levels in the semen vs. placebo” value (IL-8 [3]; 150 mcg/die, after 12 weeks) was “significantly reduce; also recorded: can lower seminal IL-8 levels in human patients”, the “Seminal IL-8, % Change vs Baseline Week 12, 25th perc.” value (IL-8 [3]; 150 mcg/die, week 12) was −42.37% and the “Seminal IL-8, % Change vs Baseline Week 12, 75th perc.” value (IL-8 [3]; 150 mcg/die, week 12) was 1.05%. For the same compound, the “Seminal IL-8, % Change vs Baseline Week 12, Max” value (IL-8 [3]; 150 mcg/die, week 12) was 89.48%, the “Seminal IL-8, % Change vs Baseline Week 12, Mean” value (IL-8 [3]; 150 mcg/die, week 12) was −19.33% and the “Seminal IL-8, % Change vs Baseline Week 12, Median” value (IL-8 [3]; 150 mcg/die, week 12) was −19.17%. The “Seminal IL-8, % Change vs Baseline Week 12, Min” value (IL-8 [3]; 150 mcg/die, week 12) was −61.82%, the “Seminal IL-8, Abs Change vs Baseline Week 12, 25th perc.” value (IL-8 [3]; 150 mcg/die, week 12) was −723.00 and the “Seminal IL-8, Abs Change vs Baseline Week 12, 75th perc.” value (IL-8 [3]; 150 mcg/die, week 12) was 12.50. The “Seminal IL-8, Abs Change vs Baseline Week 12, Max” value (IL-8 [3]; 150 mcg/die, week 12) was 604.00, the “Seminal IL-8, Abs Change vs Baseline Week 12, Mean” value (IL-8 [3]; 150 mcg/die, week 12) was −368.34 and the “Seminal IL-8, Abs Change vs Baseline Week 12, Median” value (IL-8 [3]; 150 mcg/die, week 12) was −358.00. The “Seminal IL-8, Abs Change vs Baseline Week 12, Min” value (IL-8 [3]; 150 mcg/die, week 12) was −1264.00, the “Seminal IL-8, Week 12, 25th perc.” value (IL-8 [3]; 150 mcg/die, week 12) was 809.50 and the “Seminal IL-8, Week 12, 75th perc.” value (IL-8 [3]; 150 mcg/die, week 12) was 1394.00. For the same compound, the “Seminal IL-8, Week 12, Max” value (IL-8 [3]; 150 mcg/die, week 12) was 2599.00, the “Seminal IL-8, Week 12, Mean” value (IL-8 [3]; 150 mcg/die, week 12) was 1172.57 and the “Seminal IL-8, Week 12, Median” value (IL-8 [3]; 150 mcg/die, week 12) was 985.50. For the same compound, the “Seminal IL-8, Week 12, Min” value (IL-8 [3]; 150 mcg/die, week 12) was 386.00, the “Seminal IL-8, Baseline, 25th perc.” value (IL-8 [3]; before treatment) was 947.50 and the “Seminal IL-8, Baseline, 75th perc.” value (IL-8 [3]; before treatment) was 1903.50. The “Seminal IL-8, Baseline, Max” value (IL-8 [3]; before treatment) was 3015.00, the “Seminal IL-8, Baseline, Mean” value (IL-8 [3]; before treatment) was 1486.43 and the “Seminal IL-8, Baseline, Median” value (IL-8 [3]; before treatment) was 1376.50. For the same compound, the “Seminal IL-8, Baseline, Min” value (IL-8 [3]; before treatment) was 468.00, the “PTX3 level in seminal plasma” value [4] was “decreased” and the “CCL2/MCP-1 level in seminal plasma” value (CCL2/MCP-1) was “decreased”. For the same compound, the “MMP2 level in seminal plasma” value [5] was “decreased”.
In the case of `C=C1CC[C@H](O)C/C1=C/C=C1\CCC[C@]2(C)[C@@H]([C@H](C)CCCC(C)C)CC[C@@H]12` [vitamin D3, 9,10-secocholesta-5,7,10(19)-trien-3B-ol], the BPH cell proliferation (BPH cells) is given as “inhibited” and the “mitogenic activity of growth factors for BPH cells” value (BPH cells; keratinocyte growth factor (KGF) and insulin-like growth factor (IGF1)) is given as “counteracted”.
